Values quoted from earlier work in patent US6815463B2, “Laulimalide derivatives” (Kosan Biosciences, Inc., priority 2001, dated 2004).

System: microtubules
Conditions: for stabilization of microtubules: similar to paclitaxel, Mooberry et al. 1999, WO 01/54689

| Structure (SMILES) | potency as stabilizer of microtubule polymerization relative to laulimalide (comparison with laulimalide) | stabilization of microtubules |
| --- | --- | --- |
| C=C1C[C@H](C)C[C@@H]2CC=C[C@@H](C/C=C\C(=O)O[C@H]3C[C@@H](O[C@H]3/C=C/[C@@H]3CC(C)=CCO3)[C@@H](O)[C@@H](O)C1)O2 [isolaulimalide] | less potent stabilizer of microtubule polymerization than laulimalide | potent stabilizers of microtubules |
| C=C1C[C@H](C)C[C@@H]2CC=C[C@@H](C/C=C\C(=O)O[C@H]([C@@H](O)/C=C/[C@@H]3CC(C)=CCO3)C[C@@H]3O[C@H]3[C@@H](O)C1)O2 [laulimalide, Laulimalide] |  | potent stabilizers of microtubules |
